Measurements from PubChem BioAssay AID1645864 (Buhrlage Lab, Dana-Farber Cancer Institute and Novartis …, 2021).
Calls of active or inactive are those of the source.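 How the source made its calls: active means maximal inhibition of USP17 at or above 30% in the confirmation dose-response, a value not among the printed readouts; inactive means the rest.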

biological target: Ubiquitin carboxyl-terminal hydrolase 17-like protein 5 (Homo sapiens) (UniProt A8MUK1); experiment: ubiquitin-specific protease 17 inhibitors, concentration series, biochemical, verification of primary actives (AID 1645864); conditions: purified USP17, ubiquitin-rhodamine cleavage fluorescence, 3 h
Sequence (A8MUK1 whole entry, looked up): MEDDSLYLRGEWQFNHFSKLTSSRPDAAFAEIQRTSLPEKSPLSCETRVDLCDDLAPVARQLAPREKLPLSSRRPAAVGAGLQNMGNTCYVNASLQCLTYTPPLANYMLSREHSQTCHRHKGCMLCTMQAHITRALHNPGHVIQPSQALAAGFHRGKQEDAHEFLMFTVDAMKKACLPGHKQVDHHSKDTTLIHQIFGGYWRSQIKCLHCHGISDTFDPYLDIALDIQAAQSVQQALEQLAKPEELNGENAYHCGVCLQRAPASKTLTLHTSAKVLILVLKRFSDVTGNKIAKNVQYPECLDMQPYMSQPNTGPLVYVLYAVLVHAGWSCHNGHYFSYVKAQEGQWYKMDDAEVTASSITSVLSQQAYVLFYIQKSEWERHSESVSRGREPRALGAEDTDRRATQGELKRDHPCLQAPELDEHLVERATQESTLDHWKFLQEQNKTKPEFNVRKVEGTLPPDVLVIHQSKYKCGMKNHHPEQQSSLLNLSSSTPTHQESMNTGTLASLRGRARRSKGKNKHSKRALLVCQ

Compound | IC50
CC1OC2CC(O)C1(O)C1=C2C(O)=C(C(N)=O)C(=N)C1=O (stereo not drawn) | 2.06 µM
O=C(Nc1ccc2c(c1)OCCO2)Nc1nnc(CC(=O)N2CCCCC2)s1 | > 50 µM (inactive)
Cc1nn(CC(=O)Nc2ccc(Br)c3cccnc23)c(=O)c2ccccc12 | 12.7 µM
O=C(Cn1nnc(-c2ccc(F)cc2)n1)NCCc1ccccc1 | 33.7 µM
O=S(=O)(c1ccccc1Cl)N1CCN(c2ccc3nnc(-c4ccco4)n3n2)CC1 | > 50 µM (inactive)
Cc1ccc2c(=O)c3c([nH]c2c1C)CCN(CC(=O)NCc1ccc2c(c1)OCO2)C3 | 32.8 µM
Cc1ccc(Cn2c(=O)c3ccccc3n3c(CCC(=O)N4CCN(c5ccccn5)CC4)nnc23)cc1 | 11.8 µM
CCCNc1cc(-c2ccccc2)nc2nc(-c3cccnc3)nn12 | > 50 µM (inactive)
O=C(NC1CCCC1)c1cccc(-c2ccc(N3CCCC3)nc2)c1 | 4.53 µM
O=C1NC(=O)/C(=C/c2ccc(OC(=O)c3ccc(Cl)cc3Cl)cc2)N1 | 13.7 µM
O=C(Cc1cc(-c2ccc(F)cc2)on1)NCc1ccccc1 | 15.9 µM
Cc1ccc(CNC(=O)Cn2cnc3c(cnn3-c3cccc(Cl)c3)c2=O)cc1 | 1.49 µM
Cc1cc(C(=O)N2CC(C(=O)Nc3cc(C(F)(F)F)ccc3Cl)C2)no1 | 38.4 µM
O=C(OCCCN1C(=O)c2cccc3c(N4CCCCC4)ccc(c23)C1=O)c1ccccn1 | > 50 µM (inactive)
Nc1ccccc1SC(CC(=O)c1ccc(Cl)cc1)c1ccsc1 (stereo not drawn) | > 50 µM (inactive)
COc1cc(O)c2c(O)c3c(cc2c1)CC(C)OC3=O (stereo not drawn) | 6.24 µM
COc1cccc(CNC(=O)C2=Cc3cccc(OC)c3OC2)c1 | > 50 µM (inactive)
COc1ccc(-c2cc(-c3ccccc3)nc(SCC(N)=O)c2C#N)cc1OC | 1.61 µM
CCn1cc(NC(=O)CN2CCC3(CC=CCOC3)CC2)c(C)n1 | > 50 µM (inactive)
Cc1ccc(Cn2cc(-c3noc(-c4ccncc4)n3)nn2)cc1 | 28.6 µM
COc1ccc(-c2nonc2NC(=O)C(c2ccccc2)c2ccccc2)cc1OC | > 50 µM (inactive)
CC1(C)CC(n2[nH]c(=O)c3c2NC(=O)CSC3c2ccc(OCc3ccccc3)cc2)CCO1 (stereo not drawn) | 21 µM
COc1ccc(C(C)NC(=O)c2cnc(-c3ccccc3)nc2-c2ccncc2)cc1 (stereo not drawn) | > 50 µM (inactive)
COc1ccc(CCNC(=O)CSc2cn(CCNC(=O)c3ccc(F)cc3)c3ccccc23)cc1OC | 31.3 µM
Nc1ccc(NC(=O)c2cc3c(s2)CCC3)cc1[N+](=O)[O-] | 24.6 µM

Compound | IC50
COc1ccc2c(c1)CCc1c-2n[nH]c1C(=O)Nc1cc(C)on1 | 4.67 µM
Nc1c(C(=O)c2cccs2)oc2nc(-c3ccccc3)cc(-c3ccco3)c12 | > 50 µM (inactive)
Cc1oc(C2CC2)cc1C(=O)N1CCC2(CC1)CC1(CO2)Nc2ccccc2-n2cccc21 (stereo not drawn) | > 50 µM (inactive)
Cc1nn(-c2nc3ccccc3[nH]2)c2c1C(c1cccs1)CC(=O)N2 (stereo not drawn) | > 50 µM (inactive)
Cc1ccc(CNC(=O)c2ccc(N3C(=O)[C@@H]4Cc5ccccc5CN4C3=O)cc2)cc1 | 34.2 µM
CC(=O)N1CCc2cc(S(=O)(=O)NC(Cc3ccccc3)C(=O)Nc3cccc(Cl)c3C)ccc21 (stereo not drawn) | 12.9 µM
O=C(NCc1ccc(Cl)cc1)c1ccc(N2CCCS2(=O)=O)cc1 | > 50 µM (inactive)
CC(C)NC(=O)Cn1ccn2nc(-c3ccc(Cl)cc3)cc2c1=O | 3.85 µM
CCCc1nc2sc3c(NC4CCCCC4)ncnc3c2c2c1CCC2 | > 50 µM (inactive)
O=C(CSc1nc2cc(C(F)(F)F)ccc2s1)NCC(=O)c1ccccc1 | 1.86 µM
CCC(=O)OCc1cnc(C)c2oc(=O)c(-c3nc(-c4ccccc4)no3)cc12 | > 50 µM (inactive)
O=C(NCc1ccc(CN2CCCC2)cc1)c1cc2ccccc2[nH]c1=O | 28.4 µM
COc1cccc(NC(=O)Cc2sc(Nc3cc(C)cc(C)c3)nc2O)c1 | 17.8 µM
COc1ccc(C(=O)CCN2CCOCC2)cc1[N+](=O)[O-] | > 50 µM (inactive)
Cc1ccc(S(=O)(=O)N(C)C)cc1NC(=O)Cc1ccc(Cl)c(Cl)c1 | > 50 µM (inactive)
O=C(Cn1ncc2c(N3CCCCCC3)ncnc21)NCc1ccccc1 | > 50 µM (inactive)
Cc1ccc(CN2C(=O)c3cc4ccccc4n3CC2(C)C(=O)NCc2ccccc2)o1 (stereo not drawn) | 26.7 µM
COc1ccccc1-c1nc(-c2cn(-c3ccc(C)cc3)nn2)no1 | 28.9 µM
CS(=O)(=O)N1CCc2cc(C(=O)Nc3ccc(Cc4ccncc4)cc3)ccc21 | > 50 µM (inactive)
Cc1ccc(CNC(=O)CCCn2c(=O)c3sccc3n(CC(=O)OCc3ccccc3)c2=O)cc1 | 2.5 µM
CCOC(=O)c1ccc(NC(=O)Cn2c(=O)n(CC(=O)NCCc3ccc(OC)c(OC)c3)c(=O)c3sccc32)cc1 | 2.51 µM
Cc1cccc(C(=O)N2CCc3cc(-c4nc(NC(=O)CN5CCc6ccccc6C5)sc4C)ccc32)c1 | > 50 µM (inactive)
Cc1c(CC(=O)Nc2nn[nH]n2)c(=O)oc2cc3c(cc12)CCC1(CCCCC1)O3 | > 50 µM (inactive)
CN(CCCNC(=O)c1cccc2c1SCCC2=O)c1ccccc1 | > 50 µM (inactive)
Cc1ccc2cc3c(nc2n1)CCN(Cc1ccc(F)cc1)C3 | > 50 µM (inactive)

Compound | IC50
CC(=O)CN1CC2(CCN(Cc3ccc(F)cc3)CC2)COc2ccccc2S1(=O)=O | > 50 µM (inactive)
O=C(NCc1cccc(NC(=O)C2CC2)c1)Nc1cccc2ccccc12 | 39.7 µM
Cc1cccc(NC(=O)CN2C(=O)CC(c3ccccc3)S(=O)(=O)c3ccccc32)c1C (stereo not drawn) | 25.3 µM
COc1ccc(NC(=O)C2c3ccccc3C(=O)N(C3CCCC3)C2c2cccs2)cc1OC (stereo not drawn) | 47.1 µM
CC(=O)Nc1ccc(S(=O)(=O)NCc2ccc(C(=O)NCCc3ccc(Cl)cc3)cc2)cc1 | 2.31 µM
COc1ccc(-c2cc(-c3ccc(F)cc3)[nH]c(=O)c2C#N)cc1 | 30.3 µM
COC(=O)CC1CC23OC2(C(=O)c2c(O)cccc2C3=O)C(C)O1 (stereo not drawn) | 0.161 µM
O=C(C1CCCN(S(=O)(=O)N2CCCCCC2)C1)N1CCN(c2ccccc2)CC1 (stereo not drawn) | > 50 µM (inactive)
COc1ccc(C(=O)Nc2ccc3c(c2)Sc2ncccc2C(=O)N3C)cn1 | > 50 µM (inactive)
CC(C)N1C[C@@H]2C[C@H](NS(=O)(=O)c3cccc(C#N)c3)CN2Cc2ccccc21 | > 50 µM (inactive)
CC(=O)c1cccc(NC(=O)c2ccc(CN(c3ccc(C)c(C)c3)S(C)(=O)=O)cc2)c1 | > 50 µM (inactive)
COC(=O)c1ccc2c(=O)n(CCCCCC(=O)NCc3cccc(Cl)c3)c(=O)[nH]c2c1 | 2.36 µM
O=C(CC1C(=O)Nc2nc(-c3ccccc3)nn21)Nc1cccc2ccccc12 (stereo not drawn) | 12.2 µM
COc1ccc(OC)c(-n2c(SCC(=O)N3CCc4ccccc43)nnc2-c2cccc(S(=O)(=O)N(C)C)c2)c1 | 3.51 µM
CC(C)CC[C@H]1O[C@@H](CC(=O)O)Cc2cc3c(c(O)c21)C(=O)c1sc(=O)n(C)c1C3=O | 0.194 µM
O=C1/C(=C/c2cn(-c3ccccc3)nc2-c2ccc3c(c2)OCCO3)Cc2ccccc21 | > 50 µM (inactive)
CN1C(=O)c2cc(NC(=O)c3ccccc3Cl)ccc2Oc2ccccc21 | > 50 µM (inactive)
Cc1cc(C)cc(-n2ccnc(SCC(=O)Nc3cccc(Cl)c3)c2=O)c1 | 28.3 µM
N#Cc1ccccc1COC(=O)c1ccc2ccccc2n1 | > 50 µM (inactive)
Cc1ccc(OC(=O)c2cn(-c3ccccc3)nc2-c2cccnc2)cc1 | > 50 µM (inactive)
O=S(=O)(c1ccc(F)cc1)N1CCCC1c1ccnc(Nc2cnccn2)n1 (stereo not drawn) | > 50 µM (inactive)
O=c1c(-c2nc(C3CC3)no2)cccn1Cc1c(F)cccc1Cl | > 50 µM (inactive)
COc1ccc(NC(=O)Cn2c(CSc3ccc(C)cc3)nc3ccccc32)cc1 | 36 µM
CCOc1ccc(N2C(=O)c3ccccc3C2C(=O)NCc2ccccc2OC)cc1 (stereo not drawn) | 45.8 µM
COc1ccc(C)cc1NC(=O)C(NS(=O)(=O)c1ccc2c(c1)CCN2C(C)=O)C(C)C (stereo not drawn) | > 50 µM (inactive)

Compound | IC50
CN(CCc1ccccc1)c1nccc(N2CCN(C(=O)c3csc(-c4cccnc4)n3)CC2)n1 | > 50 µM (inactive)
Cc1ccc(Cn2cc(-c3noc(-c4ccc[nH]4)n3)nn2)cc1 | 21.2 µM
COc1cc(NC(=O)COC(=O)Cn2cnc3ccccc32)cc(OC)c1 | > 50 µM (inactive)
O=c1ncn(Cc2ccc3c(c2)OCO3)cc1-c1ncc(C(F)(F)F)cc1Cl | 43.9 µM
COc1ccc(OCCn2c(C3CC(=O)N(c4cccc(C)c4)C3)nc3ccccc32)cc1 (stereo not drawn) | 0.391 µM
Cc1ccc(NC(=O)c2ccc3c(c2)N(S(C)(=O)=O)CC3)cc1 | 38.3 µM
CCCc1nc2c(sc3nc4c(cc32)COC(C)(C)C4)c(=O)n1CC(=O)Nc1ccccc1C | 32.2 µM
O=C(Nc1cccc(C(F)(F)F)c1)N1CCCn2c(nc3ccccc32)C1 | 25 µM
COc1cc2c(oc(=O)c3cc(C)cc(OC)c32)c2c([C@@H]3OC(C)[C@@H](O)[C@@](C)(O)C3O)ccc(O)c12 (stereo partly drawn) | 24.4 µM
c1ccc(-n2nnc(-c3noc(-c4cccnc4)n3)c2-c2ccncc2)cc1 | 27.9 µM
CC1CCc2c(sc3nc(CC#N)[nH]c(=O)c23)C1 (stereo not drawn) | > 50 µM (inactive)
CCOC(=O)c1ccc(S(=O)(=O)N2CCC(C(=O)OC(C)C(=O)Nc3cccc([N+](=O)[O-])c3)CC2)cc1 (stereo not drawn) | 7.35 µM
CCN(CC)c1cc(C)c2cc(NC(=O)c3ccncc3)ccc2n1 | > 50 µM (inactive)
CC(C)(C)n1ncc2c(=O)n(Cc3cccc([N+](=O)[O-])c3)cnc21 | > 50 µM (inactive)
O=C1CC(C(=O)Nc2ccc(F)cc2)n2nc(SCc3ccccc3)nc2N1 (stereo not drawn) | 38.3 µM
Cc1cc(N2CCC(NC(=O)NCc3ccc(F)cc3)C2=O)ccc1F (stereo not drawn) | 9.01 µM
Cc1cccc(CNC(=O)c2ccc(-c3nnc(-c4cccc(C)c4)o3)cc2)c1 | 5.03 µM
Cc1ccc2[nH]c(=O)c(CN(CC3COCCO3)S(=O)(=O)c3ccc(F)cc3)cc2c1 (stereo not drawn) | 4.16 µM
Clc1cc2nc(N3CCN(c4ccccn4)CC3)c3nncn3c2cc1Cl | 2.17 µM
CC(=O)N1CCCC(c2nc(C)cc(-c3cc(F)ccc3C(=O)O)n2)C1 (stereo not drawn) | > 50 µM (inactive)
CC(C)C(=O)Nc1ccc(N2CCN(Cc3ccc(F)cc3)C2=O)nc1 | 26.4 µM
COc1ccccc1CNC(=O)c1ccccc1OCc1ccccc1Cl | > 50 µM (inactive)
CCc1noc(-c2ccc(OCC(=O)Nc3ccc(C)cc3C)cc2)n1 | 30.5 µM
